Experimental data reported in patent publication US20220220128A1, “HETEROCYCLIC COMPOUNDS AS KINASE INHIBITORS, COMPOSITIONS COMPRISING THE HETEROCYCLIC COMPOUND, AND METHODS OF USE THEREOF” (JS Innopharm (Shanghai) Ltd, priority 2019, published 2022).

How the values were obtained:
human KDR kinase = molecular target: T1, human KDR kinase (Homo sapiens, UniProt P35968); assay: KDR Kinase Assay (LanthaScreen TR-FRET enzymatic assay); format: biochemical; conditions: 1.2 nM KDR, 92 μM ATP
T1 construct: purchased Carna 08-191
T1 sequence (P35968 20-1356): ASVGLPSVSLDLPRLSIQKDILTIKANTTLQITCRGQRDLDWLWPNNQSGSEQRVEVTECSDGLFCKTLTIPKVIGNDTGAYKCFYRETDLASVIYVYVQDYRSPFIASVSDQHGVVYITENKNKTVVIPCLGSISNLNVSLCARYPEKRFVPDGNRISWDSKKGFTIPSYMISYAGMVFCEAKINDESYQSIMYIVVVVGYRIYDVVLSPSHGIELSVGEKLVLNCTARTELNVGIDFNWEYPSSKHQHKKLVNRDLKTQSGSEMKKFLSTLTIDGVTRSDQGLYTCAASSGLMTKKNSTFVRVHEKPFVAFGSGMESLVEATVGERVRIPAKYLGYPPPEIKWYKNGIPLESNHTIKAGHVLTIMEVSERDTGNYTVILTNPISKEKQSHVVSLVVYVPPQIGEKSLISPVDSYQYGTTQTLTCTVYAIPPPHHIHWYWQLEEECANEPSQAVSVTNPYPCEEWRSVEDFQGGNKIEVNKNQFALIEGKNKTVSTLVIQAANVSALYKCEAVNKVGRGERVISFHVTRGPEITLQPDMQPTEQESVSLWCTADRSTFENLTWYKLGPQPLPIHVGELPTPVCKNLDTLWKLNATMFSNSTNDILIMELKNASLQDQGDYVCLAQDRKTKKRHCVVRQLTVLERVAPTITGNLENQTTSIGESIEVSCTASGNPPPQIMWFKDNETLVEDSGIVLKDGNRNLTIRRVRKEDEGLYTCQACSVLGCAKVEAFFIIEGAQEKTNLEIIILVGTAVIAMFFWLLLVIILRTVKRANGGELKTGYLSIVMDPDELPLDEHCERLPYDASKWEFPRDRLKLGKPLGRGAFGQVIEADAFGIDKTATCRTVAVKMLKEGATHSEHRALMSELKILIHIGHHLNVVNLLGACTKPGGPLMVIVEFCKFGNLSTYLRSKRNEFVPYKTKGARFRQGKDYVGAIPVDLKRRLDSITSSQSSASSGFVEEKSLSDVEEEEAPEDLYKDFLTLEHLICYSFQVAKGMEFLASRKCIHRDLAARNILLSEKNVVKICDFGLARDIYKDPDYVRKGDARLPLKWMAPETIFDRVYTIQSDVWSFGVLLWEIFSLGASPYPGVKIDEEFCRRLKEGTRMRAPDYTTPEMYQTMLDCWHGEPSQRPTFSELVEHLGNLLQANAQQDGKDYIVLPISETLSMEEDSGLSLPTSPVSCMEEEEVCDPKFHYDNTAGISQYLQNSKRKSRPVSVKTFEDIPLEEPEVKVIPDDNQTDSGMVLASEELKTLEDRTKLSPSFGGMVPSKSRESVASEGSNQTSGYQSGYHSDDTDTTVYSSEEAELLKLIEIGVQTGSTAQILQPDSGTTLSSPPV
Method in brief: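 TR-FRET enzymatic format: after 15-min room-temperature compound pretreatment, 1.2 nM human KDR phosphorylated 3 μM FAM-P22 with 92 μM ATP (HEPES pH 7.5, 28° C., one hour). Reactions were quenched with EDTA buffer. IC50 came from nonlinear sigmoid fits of percent-of-vehicle signal ratios.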

human RET kinase = molecular target: T2, human RET kinase (Homo sapiens, UniProt P07949); assay: RET Kinase Assay (LanthaScreen TR-FRET enzymatic assay); format: biochemical; conditions: 7 nM RET, 23 μM ATP
T2 construct: purchased Carna 08-159
T2 sequence (P07949 29-1114): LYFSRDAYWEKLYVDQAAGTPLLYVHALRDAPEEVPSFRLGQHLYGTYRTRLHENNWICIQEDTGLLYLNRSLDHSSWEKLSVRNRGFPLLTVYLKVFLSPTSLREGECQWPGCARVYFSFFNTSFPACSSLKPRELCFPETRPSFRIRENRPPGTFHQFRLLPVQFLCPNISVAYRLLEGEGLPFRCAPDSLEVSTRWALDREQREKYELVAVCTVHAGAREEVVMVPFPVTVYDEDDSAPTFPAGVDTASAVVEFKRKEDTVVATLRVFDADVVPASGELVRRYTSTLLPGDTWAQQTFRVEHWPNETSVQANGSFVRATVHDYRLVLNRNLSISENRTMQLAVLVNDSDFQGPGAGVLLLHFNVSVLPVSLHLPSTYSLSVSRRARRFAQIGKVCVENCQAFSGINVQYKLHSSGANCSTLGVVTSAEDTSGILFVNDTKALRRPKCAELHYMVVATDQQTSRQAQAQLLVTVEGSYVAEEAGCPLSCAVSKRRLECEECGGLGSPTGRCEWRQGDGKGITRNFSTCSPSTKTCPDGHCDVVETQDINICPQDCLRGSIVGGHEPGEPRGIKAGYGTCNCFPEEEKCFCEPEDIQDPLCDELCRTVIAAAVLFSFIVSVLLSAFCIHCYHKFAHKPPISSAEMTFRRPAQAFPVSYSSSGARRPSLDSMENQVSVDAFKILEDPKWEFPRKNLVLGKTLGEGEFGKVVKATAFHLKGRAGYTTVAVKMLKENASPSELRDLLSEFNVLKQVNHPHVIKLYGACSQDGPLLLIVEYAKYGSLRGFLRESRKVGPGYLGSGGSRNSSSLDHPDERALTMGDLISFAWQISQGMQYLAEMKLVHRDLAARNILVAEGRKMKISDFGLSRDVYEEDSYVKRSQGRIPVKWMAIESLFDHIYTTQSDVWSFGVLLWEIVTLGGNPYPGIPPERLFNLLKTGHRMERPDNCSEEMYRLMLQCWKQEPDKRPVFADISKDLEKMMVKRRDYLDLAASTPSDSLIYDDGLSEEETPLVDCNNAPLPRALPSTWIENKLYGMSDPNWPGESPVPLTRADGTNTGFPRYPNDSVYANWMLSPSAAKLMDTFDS
Method in brief: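 TR-FRET enzymatic read-out using 23 μM ATP, 3 μM FAM-P2 substrate and 7 nM human RET, after 15-min compound pretreatment at room temperature and a 1 h reaction at 28° C in HEPES pH 7.5 buffer. Percent of DMSO control fitted to nonlinear sigmoid curves for IC50.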

BAF3-KIF5B-RET cells = molecular target: T3, BAF3-KIF5B-RET cells (Homo sapiens, UniProt P07949); assay: BAF3-KIF5B-RET Cell proliferation assay (CellTiter-Glo, 72 hours); format: cell-based; conditions: growth inhibition, read-out: BA/F3-KIF5B-RET Cellular activity
T3 construct: fused on or other part: P33176 (Kinesin-1 heavy chain)
T3 sequence (P07949 whole entry, change not shown, the tested form may be a part): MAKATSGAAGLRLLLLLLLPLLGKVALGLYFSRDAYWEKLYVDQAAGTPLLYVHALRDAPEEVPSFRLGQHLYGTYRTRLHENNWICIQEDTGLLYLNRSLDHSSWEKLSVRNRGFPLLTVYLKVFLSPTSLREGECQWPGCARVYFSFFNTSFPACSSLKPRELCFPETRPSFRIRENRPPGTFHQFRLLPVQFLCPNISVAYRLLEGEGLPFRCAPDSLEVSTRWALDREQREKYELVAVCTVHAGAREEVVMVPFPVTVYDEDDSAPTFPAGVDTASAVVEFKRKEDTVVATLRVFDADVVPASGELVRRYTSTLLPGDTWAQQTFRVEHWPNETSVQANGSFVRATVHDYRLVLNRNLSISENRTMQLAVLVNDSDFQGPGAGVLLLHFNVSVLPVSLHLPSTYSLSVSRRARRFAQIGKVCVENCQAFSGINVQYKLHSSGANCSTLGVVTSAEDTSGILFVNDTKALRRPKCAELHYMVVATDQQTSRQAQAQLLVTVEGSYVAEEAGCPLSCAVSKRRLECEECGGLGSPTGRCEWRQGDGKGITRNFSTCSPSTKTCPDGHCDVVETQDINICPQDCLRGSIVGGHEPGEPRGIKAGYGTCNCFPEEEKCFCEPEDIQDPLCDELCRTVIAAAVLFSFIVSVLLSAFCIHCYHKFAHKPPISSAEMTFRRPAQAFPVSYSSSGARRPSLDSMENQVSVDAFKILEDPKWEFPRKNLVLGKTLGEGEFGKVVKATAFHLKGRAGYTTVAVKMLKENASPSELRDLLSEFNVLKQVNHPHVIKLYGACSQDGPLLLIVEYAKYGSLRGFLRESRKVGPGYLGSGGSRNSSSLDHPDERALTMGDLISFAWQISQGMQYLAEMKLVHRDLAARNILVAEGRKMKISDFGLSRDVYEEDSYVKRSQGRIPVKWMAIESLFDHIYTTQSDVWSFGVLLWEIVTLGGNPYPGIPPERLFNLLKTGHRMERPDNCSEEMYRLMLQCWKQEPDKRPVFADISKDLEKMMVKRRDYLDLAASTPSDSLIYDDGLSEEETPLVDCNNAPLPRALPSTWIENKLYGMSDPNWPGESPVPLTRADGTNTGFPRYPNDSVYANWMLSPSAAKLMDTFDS
Method in brief: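 Cells seeded at 2,000/well in RPMI-1640 with 10% FBS and left 24 h at 37 °C, then exposed 72 h to nine compound levels (final 1 μM down to 0.00015 μM, 0.1% DMSO). CellTiter-Glo luminescence gave viability versus DMSO wells, from which IC50 was fitted.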

IC50 (human KDR kinase) | IC50 (human RET kinase) | GI50 (BAF3-KIF5B-RET cells) | Structure (SMILES)
> 100 nM | ≤ 10 nM | 10 to 50 nM | CC(C)(O)COc1cc(-c2cnc(N3C[C@@H]4[C@@H](CNC(=O)c5ncccc5Cl)[C@@H]4C3)cn2)c2c(C#N)cnn2c1 [Example 103, 3-chloro-N-(((1R,5S,6s)-3-(5-(3-cyano-6-(2-hydroxy-2-methylpropoxy)pyrazolo[1,5-a]pyridin-4-yl)pyrazin-2-yl)-3-azabicyclo[3.1.0]hexan-6-yl)methyl)picolinamide]
 | ≤ 10 nM | ≤ 10 nM | COc1cccnc1C(=O)N[C@]1(C)C[C@H]2CN(c3cnc(-c4cc(-c5cnn(C)c5)cn5ncc(C#N)c45)cn3)C[C@H]2C1 [Example 151, N-((3aR,5s,6aS)-2-(5-(3-cyano-6-(1-methyl-1H-pyrazol-4-yl)pyrazolo[1,5-a]pyridin-4-yl)pyrazin-2-yl)-5-methyloctahydrocyclopenta[c]pyrrol-5-yl)-3-methoxypicolinamide]
 | ≤ 10 nM | 10 to 50 nM | CCOc1cc(-c2cnc(N3C4CC5CC3CC(C(=O)Nc3ccc(OC)nc3)(C5)C4)cn2)c2c(C#N)cnn2c1 [Example 170, (1R,3S,5s,7s)-2-(5-(3-cyano-6-ethoxypyrazolo[1,5-a]pyridin-4-yl)pyrazin-2-yl)-N-(6-methoxypyridin-3-yl)-2-azaadamantane-5-carboxamide]
 | ≤ 10 nM | ≤ 10 nM | CC(C)(O)COc1cc(-c2cnc(N3C[C@@H]4C[C@@](C)(NC(=O)c5c(F)cccc5Cl)C[C@@H]4C3)cn2)c2c(C#N)cnn2c1 [Example 144, 2-chloro-N-((3aR,5s,6aS)-2-(5-(3-cyano-6-(2-hydroxy-2-methylpropoxy)pyrazolo[1,5-a]pyridin-4-yl)pyrazin-2-yl)-5-methyloctahydrocyclopenta[c]pyrrol-5-yl)-6-fluorobenzainide]
 | ≤ 10 nM | ≤ 10 nM | COc1ccc(C(=O)NC23CC4CC(C2)N(c2cnc(-c5cc(-c6cnn(C)c6)cn6ncc(C#N)c56)cn2)C(C4)C3)cn1 [Example 165, N-((1R,3S,5s,7s)-2-(5-(3-cyano-6-(1-methyl-1H-pyrazol-4-yl)pyrazolo[1,5-a]pyridin-4-yl)pyrazin-2-yl)-2-azaadamantan-5-yl)-6-methoxynicotinamide]
 | 10 to 50 nM | > 100 nM | CC(C)(O)COc1cc(-c2cnc(N3C4CC5CC3CC(O)(C5)C4)cn2)c2c(C#N)cnn2c1 [Example 157, 4-(5-((1R,3S,5s,7s)-5-hydroxy-2-azaadamantan-2-yl)pyrazin-2-yl)-6-(2-hydroxy-2-methylpropoxy)pyrazolo[1,5-a]pyridine-3-carbonitrile]
 | 10 to 50 nM | > 100 nM | COc1ccc(NC(=O)[C@@]2(C)C[C@H]3CN(c4ccc(-c5cc(OCC(C)(C)O)cn6ncc(C#N)c56)cn4)C[C@H]3C2)cn1 [Example 116, (3aR,5r,6aS)-2-(5-(3-cyano-6-(2-hydroxy-2-methylpropoxy)pyrazolo[1,5-a]pyridin-4-yl)pyridin-2-yl)-N-(6-methoxypyridin-3-yl)-5-methyloctahydrocyclopenta[c]pyrrole-5-carboxamide]
 | ≤ 10 nM | 10 to 50 nM | COc1ccc(NC(=O)C23CC4CC(C2)N(c2cnc(-c5cc(OCC(C)(C)O)cn6ncc(C#N)c56)cn2)C(C4)C3)cn1 [Example 171, (1R,3S,5s,7s)-2-(5-(3-cyano-6-(2-hydroxy-2-methylpropoxy)pyrazolo[1,5-a]pyridin-4-yl)pyrazin-2-yl)-N-(6-methoxypyridin-3-yl)-2-azaadamantane-5-carboxamide]
 | 10 to 50 nM | > 100 nM | COc1ccc(C(=O)N[C@@]2(C)C[C@H]3CN(c4ccc(-c5cc(OCC(C)(C)O)cn6ncc(C#N)c56)cn4)C[C@H]3C2)cn1 [Example 172, N-((3aR,5r,6aS)-2-(5-(3-cyano-6-(2-hydroxy-2-methylpropoxy)pyrazolo[1,5-a]pyridin-4-yl)pyridin-2-yl)-5-methyloctahydrocyclopenta[c]pyrrol-5-yl)-6-methoxynicotinamide]
 | 50 to 100 nM | > 100 nM | COc1ccc(C(C)N2C[C@H]3CN(c4cnc(-c5cc(OCC(C)(C)O)cn6ncc(C#N)c56)cn4)C[C@H]3C2)cn1 (stereo partly drawn) [Example 176, 6-(2-hydroxy-2-methylpropoxy)-4-(5-((3aR,6aS)-5-(1-(6-methoxypyridin-3-yl)ethyl)hexahydropyrrolo[3,4-c]pyrrol-2(1H)-yl)pyrazin-2-yl)pyrazolo[1,5-a]pyridine-3-carbonitrile]
 | ≤ 10 nM | ≤ 10 nM | COc1cc(C(=O)N[C@]2(C)C[C@H]3CN(c4cnc(-c5cc(-c6cnn(C)c6)cn6ncc(C#N)c56)cn4)C[C@H]3C2)ccn1 [Example 150, N-((3aR,5s,6aS)-2-(5-(3-cyano-6-(1-methyl-1H-pyrazol-4-yl)pyrazolo[1,5-a]pyridin-4-yl)pyrazin-2-yl)-5-methyloctahydrocyclopenta[c]pyrrol-5-yl)-2-methoxyisonicotinamide]
 | ≤ 10 nM | 10 to 50 nM | COc1ccc(NC(=O)C23CC4CC(C2)N(c2ccc(-c5cc(OCC(C)(C)O)cn6ncc(C#N)c56)cn2)C(C4)C3)cn1 [Example 133, (1R,3S,5s,7s)-2-(5-(3-cyano-6-(2-hydroxy-2-methylpropoxy)pyrazolo[1,5-a]pyridin-4-yl)pyridin-2-yl)-N-(6-methoxypyridin-3-yl)-2-azaadamantane-5-carboxamide]
 | 50 to 100 nM | > 100 nM | COc1ccc(C(=O)NC[C@@H]2[C@H]3CN(c4cnc(-c5cc(OCC(C)(C)O)cn6ncc(C#N)c56)cn4)C[C@@H]23)cn1 [Example 155, N-(((1R,5S,6s)-3-(5-(3-cyano-6-(2-hydroxy-2-methylpropoxy)pyrazolo[1,5-a]pyridin-4-yl)pyrazin-2-yl)-3-azabicyclo[3.1.0]hexan-6-yl)methyl)-6-methoxynicotinamide]
 | ≤ 10 nM | 50 to 100 nM | CCOc1cc(-c2ccc(N3C4CC5CC3CC(NC(=O)c3ccc(OC)nc3)(C5)C4)nc2)c2c(C#N)cnn2c1 [Example 139, N-((1R,3S,5s,7s)-2-(5-(3-cyano-6-ethoxypyrazolo[1,5-a]pyridin-4-yl)pyridin-2-yl)-2-azaadamantan-5-yl)-6-methoxynicotinamide]
 | ≤ 10 nM | ≤ 10 nM | COc1ccnc(C(=O)NC[C@@H]2[C@H]3CN(c4ccc(-c5cc(-c6cnn(C)c6)cn6ncc(C#N)c56)cn4)C[C@@H]23)c1 [Example 193, N-(((1R,5S,6s)-3-(5-(3-cyano-6-(1-methyl-1H-pyrazol-4-yl)pyrazolo[1,5-a]pyridin-4-yl)pyridin-2-yl)-3-azabicyclo[3.1.0]hexan-6-yl)methyl)-4-methoxypicolinamide]
 | ≤ 10 nM | ≤ 10 nM | COc1ccnc(C(=O)N[C@]2(C)C[C@H]3CN(c4cnc(-c5cc(-c6cnn(C)c6)cn6ncc(C#N)c56)cn4)C[C@H]3C2)c1 [Example 149, N-((3aR,5s,6aS)-2-(5-(3-cyano-6-(1-methyl-1H-pyrazol-4-yl)pyrazolo[1,5-a]pyridin-4-yl)pyrazin-2-yl)-5-methyloctahydrocyclopenta[c]pyrrol-5-yl)-4-methoxypicolinamide]
 | ≤ 10 nM | ≤ 10 nM | CC(C)(O)COc1cc(-c2cnc(N3C4CC5CC3CC(NC(=O)c3ncccc3Cl)(C5)C4)cn2)c2c(C#N)cnn2c1 [Example 164, 3-chloro-N-((1R,3S,5s,7s)-2-(5-(3-cyano-6-(2-hydroxy-2-methylpropoxy)pyrazolo[1,5-a]pyridin-4-yl)pyrazin-2-yl)-2-azaadamantan-5-yl)picolinamide]
 | ≤ 10 nM | 10 to 50 nM | Cn1cc(-c2cc(-c3cnc(N4C5CC6CC4CC(NC=O)(C6)C5)cn3)c3c(C#N)cnn3c2)cn1 [Example 107, N-((1R,3S,5s,7s)-2-(5-(3-cyano-6-(1-methyl-1H-pyrazol-4-yl)pyrazolo[1,5-a]pyridin-4-yl)pyrazin-2-yl)-2-azaadamantan-5-yl)formamide]
 | ≤ 10 nM | > 100 nM | CCOc1cc(-c2cnc(N3C4CC5CC3CC(NC=O)(C5)C4)cn2)c2c(C#N)cnn2c1 [Example 161, N-((1R,3S,5s,7s)-2-(5-(3-cyano-6-ethoxypyrazolo[1,5-a]pyridin-4-yl)pyrazin-2-yl)-2-azaadamantan-5-yl)formamide]
 | ≤ 10 nM | 10 to 50 nM | Cn1ccc(-c2cc(-c3ccc(N4C[C@@H]5C[C@@](O)(Cc6ccccn6)C[C@@H]5C4)nc3)c3c(C#N)cnn3c2)n1 [Example 105, 4-(6-((3aR,5r,6aS)-5-hydroxy-5-(pyridin-2-ylmethyl)hexahydrocyclopenta[c]pyrrol-2(1H)-yl)pyridin-3-yl)-6-(1-methyl-1H-pyrazol-3-yl)pyrazolo[1,5-a]pyridine-3-carbonitrile]
 | ≤ 10 nM | 10 to 50 nM | Cn1cc(-c2cc(-c3ccc(N4C[C@@H]5C[C@@](O)(Cc6ccccn6)C[C@@H]5C4)nc3)c3c(C#N)cnn3c2)cn1 [Example 158, 4-(6-((3aR,5r,6aS)-5-hydroxy-5-(pyridin-2-ylmethyl)hexahydrocyclopenta[c]pyrrol-2(1H)-yl)pyridin-3-yl)-6-(1-methyl-1H-pyrazol-4-yl)pyrazolo[1,5-a]pyridine-3-carbonitrile]
